Reference: ChEMBL document CHEMBL4229384, “Success stories of natural product-based hybrid molecules for multi-factorial diseases” (Eur J Med Chem, 2018)
≈ marks a conversion by molar mass, not a printed value.

How the values were obtained:
[1] = target: Receptor tyrosine-protein kinase erbB-2 (Homo sapiens, UniProt P04626); experiment: Inhibition of HER2 in human MCF-7 cells; assay type: cell-based
Estrogen receptor [2] = target: T1, Estrogen receptor (Homo sapiens, UniProt P03372); experiment: Inhibition of estrogen receptor in human MCF-7 cells; assay type: cell-based
T1 sequence (P03372 whole entry): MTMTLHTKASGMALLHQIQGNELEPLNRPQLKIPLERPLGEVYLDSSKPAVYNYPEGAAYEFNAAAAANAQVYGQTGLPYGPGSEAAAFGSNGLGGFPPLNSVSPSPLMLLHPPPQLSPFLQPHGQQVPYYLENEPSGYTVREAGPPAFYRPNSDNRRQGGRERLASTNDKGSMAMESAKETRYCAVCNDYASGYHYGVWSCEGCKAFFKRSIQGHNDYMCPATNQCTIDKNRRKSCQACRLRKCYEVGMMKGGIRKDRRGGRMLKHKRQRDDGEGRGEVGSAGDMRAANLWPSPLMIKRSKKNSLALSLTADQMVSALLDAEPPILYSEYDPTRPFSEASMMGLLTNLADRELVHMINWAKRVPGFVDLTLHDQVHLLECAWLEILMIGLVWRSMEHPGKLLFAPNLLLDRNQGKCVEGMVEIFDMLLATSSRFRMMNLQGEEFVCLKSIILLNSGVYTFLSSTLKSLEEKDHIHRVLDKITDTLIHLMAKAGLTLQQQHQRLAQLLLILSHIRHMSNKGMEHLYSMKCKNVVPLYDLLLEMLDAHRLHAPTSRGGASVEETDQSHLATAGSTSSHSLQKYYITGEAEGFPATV

[3] = system: Mycobacterium tuberculosis; experiment: Antitubercular activity against Mycobacterium tuberculosis H37Rv; assay type: functional
Acetylcholinesterase [4] = target: T2, Acetylcholinesterase (Electrophorus electricus, UniProt O42275); experiment: Inhibition of electric eel AChE using acetylthiocholine iodide as substrate measured for 120 secs by spectrophotometric analysis
UCLA P-3 = experiment: Antiproliferative activity against human UCLA-P3 cells; assay type: functional, cell-based
MOLT-4 = experiment: Antiproliferative activity against human MOLT4 cells; assay type: functional, cell-based
Acetylcholinesterase [5] = target: T2, Acetylcholinesterase; experiment: Inhibition of electric eel AChE
[6] = target: Acetylcholinesterase (Electrophorus electricus) (UniProt O42275); experiment: Potency index, ratio of galantamine IC50 to test compound IC50 for electric eel AChE
A549 = experiment: Cytotoxicity against human A549 cells assessed as reduction in cell viability; assay type: functional; details: read-out: ED50 (the source's name)
DNA [7] = experiment: Binding affinity to human estrogen receptor DNA assessed as estrogen receptor PCR product formation; assay type: nucleic-acid assay
DNA [8] = experiment: Binding affinity to Ha-ras DNA (unknown origin) assessed as Ha-ras PCR product formation; assay type: nucleic-acid assay
[9] = Cytotoxicity against mouse […] cells assessed as reduction in cell viability after 24 to 72 hrs by MTT assay; assay type: cell-based
[10] = Cytotoxicity against bovine GM07373 cells assessed as reduction in cell viability after 24 to 72 hrs by MTT assay; assay type: cell-based; details: Bos taurus
IGR-1 = experiment: Cytotoxicity against human IGR-1 cells assessed as reduction in cell viability after 24 to 72 hrs by MTT assay; assay type: functional, cell-based
P338 = experiment: Cytotoxicity against mouse […] cells assessed as reduction in cell viability after 24 to 72 hrs by MTT assay; assay type: functional, cell-based
[11] = target: T3, Estrogen receptor (Homo sapiens) (UniProt P03372); experiment: Displacement of [3H] estradiol from human estrogen receptor alpha after 18 hrs by scintillation counting analysis
T3 sequence (whole entry): T1 sequence (P03372 whole entry)

Estrogen receptor [12] = target: T1, Estrogen receptor; experiment: Inhibition of human estrogen receptor alpha expressed in HEK293 cells assessed as reduction in estrogen-induced transcriptional activation after 6 hrs by beta galactosidase reporter gene assay; assay type: cell-based
Estrogen receptor [13] = target: T1, Estrogen receptor; experiment: Inhibition of human estrogen receptor alpha expressed in human LNCAP cells assessed as reduction in estrogen-induced transcriptional activation after 6 hrs by beta galactosidase reporter gene assay; assay type: cell-based
Estrogen receptor [14] = target: T1, Estrogen receptor; experiment: Inhibition of human estrogen receptor alpha expressed in human MDA-MB-231 cells assessed as reduction in estrogen-induced transcriptional activation after 6 hrs by beta galactosidase reporter gene assay; assay type: cell-based
Estrogen receptor [15] = target: T1, Estrogen receptor; experiment: Inhibition of human estrogen receptor alpha expressed in human MCF7 cells assessed as reduction in estrogen-induced transcriptional activation after 6 hrs by beta galactosidase reporter gene assay; assay type: cell-based
[16] = target: Amyloid-beta precursor protein (Homo sapiens, UniProt P05067); experiment: Inhibition of beta amyloid (unknown origin) deposition
[17] = Antioxidant activity assessed as reduction in oxidative stress; assay type: functional

Receptor tyrosine-protein kinase erbB-2, sequence (P04626 whole entry): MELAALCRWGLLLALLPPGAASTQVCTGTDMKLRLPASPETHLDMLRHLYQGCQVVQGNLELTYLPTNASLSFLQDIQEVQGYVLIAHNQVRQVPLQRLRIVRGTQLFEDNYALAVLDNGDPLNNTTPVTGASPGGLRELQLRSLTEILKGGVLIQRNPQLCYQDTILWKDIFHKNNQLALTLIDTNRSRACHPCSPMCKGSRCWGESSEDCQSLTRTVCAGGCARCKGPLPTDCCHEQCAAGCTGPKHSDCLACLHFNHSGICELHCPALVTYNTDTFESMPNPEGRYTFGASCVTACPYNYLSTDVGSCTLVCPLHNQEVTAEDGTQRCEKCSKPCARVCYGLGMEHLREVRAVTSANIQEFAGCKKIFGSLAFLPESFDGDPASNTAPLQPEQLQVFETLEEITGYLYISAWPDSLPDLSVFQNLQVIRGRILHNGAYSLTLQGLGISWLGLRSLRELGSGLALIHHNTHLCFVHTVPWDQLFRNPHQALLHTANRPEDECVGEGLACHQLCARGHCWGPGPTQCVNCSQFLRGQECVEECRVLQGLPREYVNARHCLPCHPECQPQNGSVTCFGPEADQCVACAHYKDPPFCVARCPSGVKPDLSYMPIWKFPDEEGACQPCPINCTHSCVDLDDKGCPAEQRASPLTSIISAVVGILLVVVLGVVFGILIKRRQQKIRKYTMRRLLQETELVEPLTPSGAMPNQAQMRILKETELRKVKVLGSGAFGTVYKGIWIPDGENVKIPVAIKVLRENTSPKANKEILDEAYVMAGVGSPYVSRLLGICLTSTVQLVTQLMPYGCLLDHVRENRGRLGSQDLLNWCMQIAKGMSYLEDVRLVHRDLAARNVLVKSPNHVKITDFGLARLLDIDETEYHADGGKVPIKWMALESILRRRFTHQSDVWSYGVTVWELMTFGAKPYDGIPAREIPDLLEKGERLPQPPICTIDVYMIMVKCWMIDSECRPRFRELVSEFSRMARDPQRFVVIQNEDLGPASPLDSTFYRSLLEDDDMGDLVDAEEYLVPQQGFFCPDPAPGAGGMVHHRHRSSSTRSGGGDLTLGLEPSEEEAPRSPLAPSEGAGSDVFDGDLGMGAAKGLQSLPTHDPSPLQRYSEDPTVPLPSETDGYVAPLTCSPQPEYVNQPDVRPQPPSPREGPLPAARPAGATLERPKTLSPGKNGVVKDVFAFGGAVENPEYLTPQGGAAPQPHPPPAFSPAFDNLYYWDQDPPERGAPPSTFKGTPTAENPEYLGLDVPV
T2 sequence (O42275 whole entry): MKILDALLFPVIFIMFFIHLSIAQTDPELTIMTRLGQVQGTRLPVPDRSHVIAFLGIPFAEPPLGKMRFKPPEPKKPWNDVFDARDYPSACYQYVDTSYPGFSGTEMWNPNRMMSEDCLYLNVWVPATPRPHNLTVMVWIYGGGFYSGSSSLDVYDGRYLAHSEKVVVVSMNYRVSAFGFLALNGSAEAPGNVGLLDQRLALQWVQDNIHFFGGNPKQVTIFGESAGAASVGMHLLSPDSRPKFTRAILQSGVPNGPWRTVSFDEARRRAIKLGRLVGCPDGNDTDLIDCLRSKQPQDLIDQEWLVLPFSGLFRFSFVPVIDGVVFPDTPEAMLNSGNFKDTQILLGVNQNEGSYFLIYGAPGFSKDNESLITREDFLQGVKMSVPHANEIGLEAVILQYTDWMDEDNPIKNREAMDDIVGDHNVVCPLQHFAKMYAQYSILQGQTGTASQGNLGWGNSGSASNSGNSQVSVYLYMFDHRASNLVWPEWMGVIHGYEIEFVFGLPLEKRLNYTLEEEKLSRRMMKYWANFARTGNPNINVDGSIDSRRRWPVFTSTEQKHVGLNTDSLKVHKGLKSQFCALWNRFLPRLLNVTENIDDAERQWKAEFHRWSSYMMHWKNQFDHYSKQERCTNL
Acetylcholinesterase (Electrophorus electricus), sequence (O42275 24-633 limits assumed): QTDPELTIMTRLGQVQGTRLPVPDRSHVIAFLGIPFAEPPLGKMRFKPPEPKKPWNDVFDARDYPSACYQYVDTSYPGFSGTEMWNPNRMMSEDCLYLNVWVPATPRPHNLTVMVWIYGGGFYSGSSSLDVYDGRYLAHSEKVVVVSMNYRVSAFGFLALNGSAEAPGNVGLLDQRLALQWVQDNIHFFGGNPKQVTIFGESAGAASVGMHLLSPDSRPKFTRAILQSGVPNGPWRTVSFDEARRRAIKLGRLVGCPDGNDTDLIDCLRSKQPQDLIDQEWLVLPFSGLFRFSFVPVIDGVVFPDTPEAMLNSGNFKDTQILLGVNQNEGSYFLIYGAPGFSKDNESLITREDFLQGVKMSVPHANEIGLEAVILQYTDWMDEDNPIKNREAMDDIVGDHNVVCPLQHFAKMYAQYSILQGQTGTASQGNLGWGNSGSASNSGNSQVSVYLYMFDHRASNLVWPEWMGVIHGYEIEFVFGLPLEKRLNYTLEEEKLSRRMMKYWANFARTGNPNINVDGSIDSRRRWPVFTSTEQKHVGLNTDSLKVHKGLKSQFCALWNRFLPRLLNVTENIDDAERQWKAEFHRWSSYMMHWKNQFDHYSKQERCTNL
Amyloid-beta precursor protein, sequence (P05067 whole entry): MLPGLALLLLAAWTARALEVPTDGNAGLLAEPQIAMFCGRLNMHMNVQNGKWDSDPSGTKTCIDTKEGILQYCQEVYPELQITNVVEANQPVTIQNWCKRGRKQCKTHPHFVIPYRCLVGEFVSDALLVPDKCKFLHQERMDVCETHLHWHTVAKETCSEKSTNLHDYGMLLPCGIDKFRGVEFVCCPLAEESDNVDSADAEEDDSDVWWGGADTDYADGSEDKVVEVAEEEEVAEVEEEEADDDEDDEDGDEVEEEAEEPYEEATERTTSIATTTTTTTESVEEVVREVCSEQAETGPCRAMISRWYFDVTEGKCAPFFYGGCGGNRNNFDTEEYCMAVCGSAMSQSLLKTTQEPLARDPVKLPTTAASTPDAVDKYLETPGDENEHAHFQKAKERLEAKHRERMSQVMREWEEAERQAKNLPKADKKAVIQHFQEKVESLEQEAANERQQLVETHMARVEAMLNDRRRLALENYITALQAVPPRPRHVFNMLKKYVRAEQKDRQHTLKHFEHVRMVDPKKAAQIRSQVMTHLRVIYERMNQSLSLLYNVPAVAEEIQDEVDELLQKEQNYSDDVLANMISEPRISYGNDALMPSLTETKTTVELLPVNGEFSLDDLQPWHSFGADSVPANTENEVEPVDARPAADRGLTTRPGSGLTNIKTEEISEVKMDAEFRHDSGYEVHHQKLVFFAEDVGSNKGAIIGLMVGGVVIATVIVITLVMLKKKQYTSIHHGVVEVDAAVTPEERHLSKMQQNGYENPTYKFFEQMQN

CO[C@H]1/C=C\C=C(/C)C(=O)NC2=CC(=O)C(NCC#CCC[C@@H]3C[C@H]4[C@@H]5CCc6cc(O)ccc6[C@H]5CC[C@]4(C)[C@H]3O)=C(C[C@@H](C)C[C@H](OC)[C@H](O)[C@@H](C)/C=C(\C)[C@@H]1OC(N)=O)C2=O (stereo in doubt)
IC50 [1]: 0.1 µM
IC50 (Estrogen receptor [2]): 0.22 µM

C[C@@]12CC[C@@H]3[C@@](CC[C@H]4[C@@]3(C)CCC[C@@]4(C)C(=O)O)(C/C1=N\NC(=O)c1ccccn1)C2
MIC [3]: 10 to 20 µg/mL (≈ 22.9 to 45.7 µM)

COc1ccc2c3c1O[C@H]1C[C@@H](O)CC[C@@]31CCN(CCCCCCCCN1CC[C@@]34C=C[C@H](O)C[C@@H]3Oc3c(OC)ccc(c34)C1)C2
IC50 (Acetylcholinesterase [4]): 0.23 µM

CCN[C@H]1CO[C@@H](O[C@H]2[C@H](OC[C@]34C#C/C=C\C#C[C@H]5N(C(=O)OCCS(=O)(=O)c6ccccc6)c6ccccc6[C@@]36O[C@]56CCC4)O[C@H](C)[C@@H](NO[C@H]3C[C@H](O)[C@H](SC(=O)c4c(C)c(I)c(O[C@@H]5O[C@@H](C)[C@H](O)[C@@H](OC)[C@H]5O)c(OC)c4OC)[C@@H](C)O3)[C@@H]2O)C[C@@H]1OC
IC50 (UCLA P-3): 0.001 µM
IC50 (MOLT-4): 0.001 µM

COc1ccc2c3c1O[C@H]1C[C@@H](O)C=C[C@]31CC[N+](CCCCCCCCCCN1C(=O)c3ccccc3C1=O)=C2
IC50 (Acetylcholinesterase [5]): 0.022 µM
Ratio IC50 [6]: 16 to 36

COc1ccc2c(c1)CC[C@@H]1[C@@H]2CC[C@]2(C)CO[C@@]3(C[C@@H](O)C(CO)=CO3)C[C@@H]12
EC50 (A549): 23 µM

COc1cc2c(cc1OCCC(=O)Nc1cc(C(=O)Nc3cc(C(=O)Nc4cc(C(=O)NCCC(=N)N)n(C)c4)n(C)c3)n(C)c1)N=C[C@@H]1CCCN1C2=O
IC50 (DNA [7]): 8 µM
IC50 (DNA [8]): 8 µM

CO[C@H]1/C=C\C=C(/C)C(=O)NC2=CC(=O)C(NC/C=C/CCC[C@@H]3C[C@H]4[C@@H]5CCc6cc(O)ccc6[C@H]5CC[C@]4(C)[C@H]3O)=C(C[C@@H](C)C[C@H](OC)[C@H](O)[C@@H](C)/C=C(\C)[C@@H]1OC(N)=O)C2=O (stereo in doubt)
IC50 [1]: 0.1 µM
IC50 (Estrogen receptor [2]): 0.08 µM

CC(C)[C@@H](C)/C=C/[C@@H](C)[C@H]1CC[C@H]2c3ccc4c(c3CC[C@]12C)C(=O)c1c(O)ccc(O)c1C4=O
IC50 [9]: 23 µM
IC50 [10]: 34 µM
IC50 (IGR-1): 23 µM
IC50 (P338): 49 µM

COC(=O)[C@]1(C)CCC[C@@]2(C)[C@@H]3CC[C@@]4(C)C[C@]3(CC[C@@H]21)C/C4=N\NC(=O)c1ccncc1
MIC [3]: 10 to 20 µg/mL (≈ 22.1 to 44.3 µM)

C[C@]12CC[C@@H]3c4ccc(O)cc4CC[C@H]3[C@@H]1CC[C@@]2(O)C#CC(=O)OCC1CC#C/C=C\C#CCC1 (stereo partly specified)
Activity [11]: 0.51 µM
IC50 (Estrogen receptor [12]): 10 µM
IC50 (Estrogen receptor [13]): 33 µM
IC50 (Estrogen receptor [14]): 48 µM
IC50 (Estrogen receptor [15]): 31 µM

O=C(CCCCC1CCSS1)NCCCNc1c2c(nc3cc(Cl)ccc13)CCCC2 (stereo unspecified) [LIPOCRINE]
IC50 [16]: 45 µM
IC50 [17]: 10 µM

C[C@@]12CC[C@@H]3[C@@](CC[C@H]4[C@@]3(C)CCC[C@@]4(C)C(=O)O)(C/C1=N\NC(=O)c1ccncc1)C2
MIC [3]: 10 to 20 µg/mL (≈ 22.9 to 45.7 µM)
